Consider one compound from paper PMC5218480 (PLoS ONE, 2017).

Molecules are shown by their SMILES.

The subject of the test is MV-4-11 cells. The experiment in a line: Gene expression microarray analysis (Affymetrix PrimeView) and GSEA. Type of test: cell-based, human. Details: RFU PODN (11730768_x_at) / Fold change /veh PODN (11730768_x_at) / RFU LINC00158 (11744669_a_at) / Fold change /veh LINC00158 (11744669_a_at) / RFU DUSP10 (11751237_a_at) / Fold change /veh DUSP10 (11751237_a_at) / RFU ID3 (11757404_x_at) / Fold change /veh ID3 (11757404_x_at) / RFU PLEKHG5 (11737974_s_at) / Fold change /veh PLEKHG5 (11737974_s_at) / RFU LRRC4B (11730491_at) / Fold change /veh LRRC4B (11730491_at) / RFU GIMAP4 (11747438_a_at) / Fold change /veh GIMAP4 (11747438_a_at) / RFU KRT8 (11758183_x_at) / Fold change /veh KRT8 (11758183_x_at) / RFU CNN1 (11734310_a_at) / Fold change /veh CNN1 (11734310_a_at) / RFU VPS37D (11726825_at) / Fold change /veh VPS37D (11726825_at) / RFU C10orf10 (11716522_x_at) / Fold change /veh C10orf10 (11716522_x_at) / RFU KIR2DL2 /// KIR2DL4 /// KIR2DL5A /// KIR2DL5B /// KIR2DS1 /// KIR2DS2 /// KIR2DS3 /// KIR2DS4 /// KIR3DL3 /// KIR3DL3 /// KIR3DS1 (11738374_at) / Fold change /veh KIR2DL2 /// KIR2DL4 /// KIR2DL5A /// KIR2DL5B /// KIR2DS1 /// KIR2DS2 /// KIR2DS3 /// KIR2DS4 /// KIR3DL3 /// KIR3DL3 /// KIR3DS1 (11738374_at) / RFU C1QL1 (11718748_at) / Fold change /veh C1QL1 (11718748_at) / RFU TMPRSS4 (11747572_a_at) / Fold change /veh TMPRSS4 (11747572_a_at) / RFU HAMP (11756126_x_at) / Fold change /veh HAMP (11756126_x_at) / RFU RNFT2 (11725882_a_at) / Fold change /veh RNFT2 (11725882_a_at) / RFU NR4A2 (11747474_a_at) / Fold change /veh NR4A2 (11747474_a_at) / RFU ABCC12 (11746883_a_at) / Fold change /veh ABCC12 (11746883_a_at) / RFU TMEM136 (11760407_x_at) / Fold change /veh TMEM136 (11760407_x_at) / RFU CLDN22 /// WWC2 (11732394_at) / Fold change /veh CLDN22 /// WWC2 (11732394_at) / RFU HLA-DPB1 (11760878_x_at) / Fold change /veh HLA-DPB1 (11760878_x_at) / RFU SPINT1 (11716480_a_at) / Fold change /veh SPINT1 (11716480_a_at) / RFU GAP43 (11754022_s_at) / Fold change /veh GAP43 (11754022_s_at) / RFU A4GNT (11735810_at) / Fold change /veh A4GNT (11735810_at) / RFU PRB3 (11715151_x_at) / Fold change /veh PRB3 (11715151_x_at) / RFU TUBB4B (11761932_at) / Fold change /veh TUBB4B (11761932_at) / RFU CAPN14 (11732068_a_at) / Fold change /veh CAPN14 (11732068_a_at) / RFU TMCC2 (11721928_a_at) / Fold change /veh TMCC2 (11721928_a_at) / RFU IRGQ (11745062_a_at) / Fold change /veh IRGQ (11745062_a_at) / RFU FAM174B (11720279_a_at) / Fold change /veh FAM174B (11720279_a_at) / RFU TMPRSS4 (11748680_a_at) / Fold change /veh TMPRSS4 (11748680_a_at) / RFU FAM212B (11763350_a_at) / Fold change /veh FAM212B (11763350_a_at) / RFU PLEKHG5 (11743358_a_at) / Fold change /veh PLEKHG5 (11743358_a_at) / RFU ZSCAN30 (11745921_a_at) / Fold change /veh ZSCAN30 (11745921_a_at) / RFU CMKLR1 (11741424_a_at) / Fold change /veh CMKLR1 (11741424_a_at) / RFU LOC101060620 /// MAPK8IP1 (11723275_at) / Fold change /veh LOC101060620 /// MAPK8IP1 (11723275_at) / RFU SPTSSB (11747773_x_at) / Fold change /veh SPTSSB (11747773_x_at) / RFU PRSS12 (11739890_at) / Fold change /veh PRSS12 (11739890_at) / RFU BIN1 (11741810_x_at) / Fold change /veh BIN1 (11741810_x_at) / RFU WNT11 (11732464_a_at) / Fold change /veh WNT11 (11732464_a_at) / RFU C10orf10 (11716521_a_at) / Fold change /veh C10orf10 (11716521_a_at) / RFU C5orf56 (11738089_at) / Fold change /veh C5orf56 (11738089_at) / RFU CYB561 (11721691_x_at) / Fold change /veh CYB561 (11721691_x_at) / RFU ANKRD19P (11752326_a_at) / Fold change /veh ANKRD19P (11752326_a_at) / RFU OR2T12 /// OR2T33 /// OR2T8 (11738714_s_at) / Fold change /veh OR2T12 /// OR2T33 /// OR2T8 (11738714_s_at) / RFU VCAN (11748164_a_at) / Fold change /veh VCAN (11748164_a_at) / RFU JSRP1 (11732532_at) / Fold change /veh JSRP1 (11732532_at) / RFU KRTAP10-11 (11738290_x_at) / Fold change /veh KRTAP10-11 (11738290_x_at) / RFU MYO3A (11730013_a_at) / Fold change /veh MYO3A (11730013_a_at) / RFU EBF3 (11725865_a_at) / Fold change /veh EBF3 (11725865_a_at) / RFU CAMK2N1 (11719241_x_at) / Fold change /veh CAMK2N1 (11719241_x_at) / RFU C5orf56 (11738088_a_at) / Fold change /veh C5orf56 (11738088_a_at) / RFU OLFML3 (11715873_a_at) / Fold change /veh OLFML3 (11715873_a_at) / RFU LOC100653217 /// NTM (11731650_a_at) / Fold change /veh LOC100653217 /// NTM (11731650_a_at) / RFU MAPK11 (11762145_a_at) / Fold change /veh MAPK11 (11762145_a_at) / RFU FIZ1 (11724087_x_at) / Fold change /veh FIZ1 (11724087_x_at) / RFU OASL (11726364_x_at) / Fold change /veh OASL (11726364_x_at) / RFU SOX15 (11748057_x_at) / Fold change /veh SOX15 (11748057_x_at) / RFU CD79A (11719716_a_at) / Fold change /veh CD79A (11719716_a_at) / RFU HIST1H1D (11736915_at) / Fold change /veh HIST1H1D (11736915_at) / RFU CASKIN2 (11723855_a_at) / Fold change /veh CASKIN2 (11723855_a_at) / RFU LOC730098 (11760151_x_at) / Fold change /veh LOC730098 (11760151_x_at) / RFU OR4N2 (11742367_at) / Fold change /veh OR4N2 (11742367_at) / RFU PRRT2 (11749266_a_at) / Fold change /veh PRRT2 (11749266_a_at) / RFU SNX32 (11753110_a_at) / Fold change /veh SNX32 (11753110_a_at) / RFU CDHR5 (11726645_a_at) / Fold change /veh CDHR5 (11726645_a_at) / RFU RCAN1 (11760418_a_at) / Fold change /veh RCAN1 (11760418_a_at) / RFU FAM167A (11723789_a_at) / Fold change /veh FAM167A (11723789_a_at) / RFU FAM26E (11764081_at) / Fold change /veh FAM26E (11764081_at) / RFU ISYNA1 (11749810_s_at) / Fold change /veh ISYNA1 (11749810_s_at) / RFU ACY1 (11761880_at) / Fold change /veh ACY1 (11761880_at) / RFU 11764098_at / Fold change /veh 11764098_at / RFU SAMD14 (11745864_x_at) / Fold change /veh SAMD14 (11745864_x_at) / RFU NPB (11741838_a_at) / Fold change /veh NPB (11741838_a_at) / RFU TMPRSS6 (11731388_a_at) / Fold change /veh TMPRSS6 (11731388_a_at) / RFU KRTAP10-2 (11738614_at) / Fold change /veh KRTAP10-2 (11738614_at) / RFU ARHGAP8 /// PRR5-ARHGAP8 (11727945_x_at) / Fold change /veh ARHGAP8 /// PRR5-ARHGAP8 (11727945_x_at) / RFU KRTAP5-7 /// NADSYN1 (11734609_at) / Fold change /veh KRTAP5-7 /// NADSYN1 (11734609_at) / RFU RASL12 (11751679_a_at) / Fold change /veh RASL12 (11751679_a_at) / RFU CDKN2B (11736163_a_at) / Fold change /veh CDKN2B (11736163_a_at) / RFU PRF1 (11729649_at) / Fold change /veh PRF1 (11729649_at) / RFU, ZNF638 /// ZNF638-IT1 / Fold change vs veh, ZNF638 /// ZNF638-IT1 / RFU, PANK3 / Fold change vs veh, PANK3 / RFU, SH3YL1 / Fold change vs veh, SH3YL1 / RFU, ZEB2 / Fold change vs veh, ZEB2 / RFU, NRIP1 / Fold change vs veh, NRIP1 / RFU, PTTG1IP / Fold change vs veh, PTTG1IP / RFU, CAPN2 / Fold change vs veh, CAPN2 / RFU, MED14 / Fold change vs veh, MED14 / RFU, SNORA58 / Fold change vs veh, SNORA58 / RFU, C1orf63 / Fold change vs veh, C1orf63 / RFU, LRRFIP1 / Fold change vs veh, LRRFIP1 / RFU, NDUFAF7 / Fold change vs veh, NDUFAF7 / RFU, SLC12A2 / Fold change vs veh, SLC12A2 / RFU, IBTK / Fold change vs veh, IBTK / RFU, ESF1 / Fold change vs veh, ESF1 / Fold change vs veh, TMEM50B / RFU, TAOK1 / Fold change vs veh, TAOK1 / RFU, ACBD3 / Fold change vs veh, ACBD3 / RFU, TMA16 / Fold change vs veh, TMA16 / RFU, RWDD3 / Fold change vs veh, RWDD3 / RFU, BCAT1 / Fold change vs veh, BCAT1 / RFU, EDEM3 / Fold change vs veh, EDEM3 / RFU, TMEM33 / Fold change vs veh, TMEM33 / RFU, WDR75 / Fold change vs veh, WDR75 / RFU, AHCTF1 / Fold change vs veh, AHCTF1 / RFU, TFRC / Fold change vs veh, TFRC / RFU, ZDHHC17 / Fold change vs veh, ZDHHC17 / RFU, NOM1 / Fold change vs veh, NOM1 / RFU, ARL8B / Fold change vs veh, ARL8B / RFU, ZBTB11 / Fold change vs veh, ZBTB11 / RFU, TAMM41 / Fold change vs veh, TAMM41 / RFU, KIAA1704 /// LOC100996395 / Fold change vs veh, KIAA1704 /// LOC100996395 / RFU, ING1 / Fold change vs veh, ING1 / RFU, TRMT61B / Fold change vs veh, TRMT61B / RFU, FUBP3 / Fold change vs veh, FUBP3 / RFU, TP53 / Fold change vs veh, TP53 / RFU, TNKS2 / Fold change vs veh, TNKS2 / RFU, ZFP14 / Fold change vs veh, ZFP14 / RFU, ACTR2 / Fold change vs veh, ACTR2 / RFU, PPP3R1 / Fold change vs veh, PPP3R1 / RFU, PIK3R1 / Fold change vs veh, PIK3R1 / RFU, HNRNPA1 / Fold change vs veh, HNRNPA1 / RFU, RNF170 / Fold change vs veh, RNF170 / RFU, ZNF28 / Fold change vs veh, ZNF28 / RFU, RNGTT / Fold change vs veh, RNGTT / RFU, OGT / Fold change vs veh, OGT / RFU, BRD1 / Fold change vs veh, BRD1 / RFU, MARS / Fold change vs veh, MARS / RFU, ZNF655 / Fold change vs veh, ZNF655 / RFU, FAHD1 / Fold change vs veh, FAHD1 / RFU, BDP1 / Fold change vs veh, BDP1 / RFU, LRRCC1 / Fold change vs veh, LRRCC1 / RFU, ARID1A / Fold change vs veh, ARID1A / RFU, ZNF146 / Fold change vs veh, ZNF146 / RFU, ZNF330 / Fold change vs veh, ZNF330 / RFU, GPN3 / Fold change vs veh, GPN3 / RFU, C9orf123 / Fold change vs veh, C9orf123 / RFU, N4BP2L2 / Fold change vs veh, N4BP2L2 / RFU, ARFIP1 / Fold change vs veh, ARFIP1 / RFU, FAM179B / Fold change vs veh, FAM179B / RFU, BCL10 / Fold change vs veh, BCL10 / RFU, UHRF1BP1L / Fold change vs veh, UHRF1BP1L / RFU, BET1 / Fold change vs veh, BET1 / RFU, CNOT2 / Fold change vs veh, CNOT2 / RFU, ZNF268 / Fold change vs veh, ZNF268 / Fold change vs veh, ZNF507 / RFU, DGCR2 / Fold change vs veh, DGCR2 / RFU, WDSUB1 / Fold change vs veh, WDSUB1 / Fold change vs veh, HSP90B1 /// MIR3652 / RFU, ADSS / Fold change vs veh, ADSS / RFU, GK / Fold change vs veh, GK / RFU, ZNF148 / Fold change vs veh, ZNF148 / RFU, TAF9 / Fold change vs veh, TAF9 / RFU, SLC1A5 / Fold change vs veh, SLC1A5 / RFU, SLMO2 / Fold change vs veh, SLMO2 / RFU, ABCC4 / Fold change vs veh, ABCC4 / RFU, LOC101060439 /// RAP1B / Fold change vs veh, LOC101060439 /// RAP1B / RFU, RFX7 / Fold change vs veh, RFX7 / RFU, GTPBP10 / Fold change vs veh, GTPBP10 / RFU, CNEP1R1 / Fold change vs veh, CNEP1R1 / RFU, BIVM-ERCC5 /// ERCC5 / Fold change vs veh, BIVM-ERCC5 /// ERCC5 / RFU, ILF3 / Fold change vs veh, ILF3 / RFU 11762660_at / Fold change /veh 11762660_at / RFU VCAN (11757783_s_at) / Fold change /veh VCAN (11757783_s_at) / RFU DDX43 (11728927_at) / Fold change /veh DDX43 (11728927_at) / RFU KRT8 (11758188_x_at) / Fold change /veh KRT8 (11758188_x_at) / RFU NKD1 (11759106_at) / Fold change /veh NKD1 (11759106_at) / RFU SRD5A1 (11742802_a_at) / Fold change /veh SRD5A1 (11742802_a_at) / RFU TPSAB1 /// TPSB2 (11721975_s_at) / Fold change /veh TPSAB1 /// TPSB2 (11721975_s_at) / RFU GSTM3 (11746129_a_at) / Fold change /veh GSTM3 (11746129_a_at) / RFU IL23R (11737362_x_at) / Fold change /veh IL23R (11737362_x_at) / RFU TMEM51 (11727254_a_at) / Fold change /veh TMEM51 (11727254_a_at) / RFU PIWIL2 (11732686_x_at) / Fold change /veh PIWIL2 (11732686_x_at) / RFU ORM1 (11744905_x_at) / Fold change /veh ORM1 (11744905_x_at) / RFU CCDC152 (11743942_at) / Fold change /veh CCDC152 (11743942_at) / RFU ECM1 (11717891_a_at) / Fold change /veh ECM1 (11717891_a_at) / RFU IL23R (11748794_a_at) / Fold change /veh IL23R (11748794_a_at) / RFU TNFAIP8L3 (11732012_x_at) / Fold change /veh TNFAIP8L3 (11732012_x_at) / RFU MBOAT4 (11741988_at) / Fold change /veh MBOAT4 (11741988_at) / RFU 11764193_at / Fold change /veh 11764193_at / RFU TMEM53 (11763286_at) / Fold change /veh TMEM53 (11763286_at) / RFU MAGEB2 (11727129_at) / Fold change /veh MAGEB2 (11727129_at) / RFU TMEM200A (11744735_a_at) / Fold change /veh TMEM200A (11744735_a_at) / RFU CCDC152 (11751479_a_at) / Fold change /veh CCDC152 (11751479_a_at) / RFU FAM211A (11726209_a_at) / Fold change /veh FAM211A (11726209_a_at) / RFU RGS16 (11746705_a_at) / Fold change /veh RGS16 (11746705_a_at) / RFU VCAN (11755009_s_at) / Fold change /veh VCAN (11755009_s_at) / RFU RHOB (11743442_s_at) / Fold change /veh RHOB (11743442_s_at) / RFU RGS16 (11720943_a_at) / Fold change /veh RGS16 (11720943_a_at) / RFU RGS16 (11720944_at) / Fold change /veh RGS16 (11720944_at) / RFU, VPS4B / Fold change vs veh, VPS4B / RFU, CREB1 / Fold change vs veh, CREB1 / RFU, DNAJC13 / Fold change vs veh, DNAJC13 / RFU, GNAQ / Fold change vs veh, GNAQ / RFU, CDK5R1 / Fold change vs veh, CDK5R1 / RFU, ZRANB3 / Fold change vs veh, ZRANB3 / RFU, CUL4A / Fold change vs veh, CUL4A / RFU, CCNY / Fold change vs veh, CCNY / RFU, UFL1 / Fold change vs veh, UFL1 / RFU, COG3 / Fold change vs veh, COG3 / RFU, DIAPH2 / Fold change vs veh, DIAPH2 / RFU, SKA2 / Fold change vs veh, SKA2 / RFU, AFF3 / Fold change vs veh, AFF3 / RFU, LMF1 / Fold change vs veh, LMF1 / RFU, IPO11 / Fold change vs veh, IPO11 / RFU, DFFB / Fold change vs veh, DFFB / RFU, FOXP1 / Fold change vs veh, FOXP1 / RFU, CARD8 / Fold change vs veh, CARD8 / RFU, STRN3 / Fold change vs veh, STRN3 / RFU, ADK / Fold change vs veh, ADK / RFU, RASSF2 / Fold change vs veh, RASSF2 / RFU, WIPF1 / Fold change vs veh, WIPF1 / RFU, LARP1B / Fold change vs veh, LARP1B / RFU, RASA1 / Fold change vs veh, RASA1 / RFU, RB1 / Fold change vs veh, RB1 / RFU, PPFIA1 / Fold change vs veh, PPFIA1 / RFU, MAT2A / Fold change vs veh, MAT2A / RFU, CCT5 / Fold change vs veh, CCT5 / RFU, WDR92 / Fold change vs veh, WDR92 / RFU, CUX1 / Fold change vs veh, CUX1 / RFU, TTC7A / Fold change vs veh, TTC7A / RFU, TMEM135 / Fold change vs veh, TMEM135 / RFU, DEPTOR / Fold change vs veh, DEPTOR / RFU, CPM / Fold change vs veh, CPM / RFU, DNAJB6 / Fold change vs veh, DNAJB6 / RFU, CACNA2D3 / Fold change vs veh, CACNA2D3 / RFU, DTX4 / Fold change vs veh, DTX4 / RFU, TFCP2 / Fold change vs veh, TFCP2 / RFU, GMCL1 /// GMCL1P1 / Fold change vs veh, GMCL1 /// GMCL1P1 / RFU, AEBP2 / Fold change vs veh, AEBP2 / RFU, SNHG1 /// SNORD22 /// SNORD25 /// SNORD26 /// SNORD27 /// SNORD28 /// SNORD29 /// SNORD31 / Fold change vs veh, SNHG1 /// SNORD22 /// SNORD25 /// SNORD26 /// SNORD27 /// SNORD28 /// SNORD29 /// SNORD31 / Fold change (Aza/veh), C12orf56 (ProbeSet 11735607_a_at) / Fold change (ACY-1035/veh), C12orf56 (ProbeSet 11735607_a_at) / Fold change (Aza/veh), FGFR1OP (ProbeSet 11751329_s_at) / Fold change (ACY-1035/veh), FGFR1OP (ProbeSet 11751329_s_at) / Fold change (Aza/veh), VPS36 (ProbeSet 11739960_a_at) / Fold change (ACY-1035/veh), VPS36 (ProbeSet 11739960_a_at) / RFU SYPL1 (11715823_x_at) / Fold change /veh SYPL1 (11715823_x_at) / RFU IGFBP7 (11715501_s_at) / Fold change /veh IGFBP7 (11715501_s_at) / RFU REEP3 (11722064_at) / Fold change /veh REEP3 (11722064_at) / RFU IGLL1 (11728026_x_at) / Fold change /veh IGLL1 (11728026_x_at): dose or concentration left out as unconfirmed. The conditions noted are these: ProbeSet 11725100_s_at; LIST B.

On to `Nc1ncn([C@@H]2O[C@H](CO)[C@@H](O)[C@H]2O)c(=O)n1` [azacitidine], for which the “RFU, ESF1” value came out at 107.31 RFU.
